Test results as given in patent US20140288110A1, “PPAR MODULATORS” (EVOLVA SA, priority 2006, published 2014).

Tests used:
[1] = tested on: PPARgamma ligand-binding domain (Gal4-PPARgammaLBD); test: PPARgamma transactivation assay (Gal4-PPARgammaLBD, UASx4-TK luc reporter); type: cell-based
From the text: This is an example of a transactivation assay for determining PPAR gamma modulating activity.
The UASx4-TK-luc reporter construct (where UAS refers to “upstream activator sequence”) contains four Gal4-responsive elements. The plasmid Gal4-PPARgammaLBD encodes a Gal4-DBD-PPARgamma-LBD fusion protein (i.e. the DNA-binding domain, DBD, of Gal4 fused to the ligand-binding domain, LBD, of PPARgamma) capable of transactivating the UASx4-TK-luc reporter plasmid by binding to the UAS. The CMV-beta-galactosidase plasmid (where CMV is cytomegalovirus) is used for normalization of experimental values.
The cells were replated, typically in 24 well plates, so that at the time of transfection the cells are 50-70% confluent.
Briefly, per well in a 24 well plate, UASx4TKluc (0.2 microg) Gal4-PPARgammaLBD (or pM-hPPARgamma-LBD; 0.1 microg) and CMV-beta-galactosidase (0.05 microg) in 30 μL DMEM (free of serum and antibiotics) is mixed with 30 microL DMEM (free of serum and antibiotics) containing 1 microL metafectenein. The mixture is incubated at room temperature for 20 min to allow formation of nucleic acid-lipid complexes and then approximately 60 microL is added to each well containing the 50-60% confluent cells. […] Cells were harvested after 12-24 hours and luciferase and beta-galactosidase activities were measured according to standard protocols.
“−” means that testing was not performed.

3T3-L1 / MEFs = test: Adipocyte differentiation assay, induction, Oil Red O staining; type: cell-based, mouse; conditions: induction assay, Oil Red O
Description: This example describes an assay for determining adipocyte differention. Compounds are tested to see whether they induce adipocyte differentiation and also to see whether they inhibit adipocyte differention.
MEFs were grown in AmnioMax basal medium (Gibco) supplemented with 7.5% Amniomax supplement C-100 (Gibco), 7.5% Fetal Bovine Serum (FBS), 2 mM Glutamine, 62.5 μg/ml penicillin and 100 μg/ml Streptomycin (growth medium). At confluence, MEFs were induced to differentiation in growth medium with the addition of 1 microM dexamethasone (Sigma) 0.5 mM isobutylmethylxanthine (Sigma), 5 microg/ml insulin (Sigma) and 10 microM test compound dissolved in DMSO or DMSO alone. Medium was subsequently renewed every 48 hrs with growth media supplemented with 5 microg/ml Insulin and ligand or DMSO.
Briefly, to test compounds as inducers of adipocyte differentiation, 3T3-L1 are grown to confluence in DMEM with 10% Calf serum (CS), typically in 24 well dishes. At 2 days post confluence (day 0), cells are induced to differentiate with DMEM supplemented with 10% fetal bovine serum (FBS), 1 μM dexamethasone and the test compound ([…], 1 and 10 microM). BRL49653 (1.0 μM dissolved in 100% Me2SO) is used as a positive control. After 48 h, the cells are re-fed with DMEM containing 10% FBS supplemented with the test compound or the positive control. From day 4, cells are grown in DMEM with 10% FBS and are changed every second day until day 8. At day 8, cells are stained with Oil Red O as described below.
(§1) Cells cultured as described above are used for Oil Red staining. Dishes are washed in PBS and cells were fixed in 3.7% paraformaldehyde for 1 h and stained with oil red O as described in (Hansen et al 1999). Oil red O solution stock solution is prepared by dissolving 0.5 g of Oil Red O (Sigma) in 100 ml of isopropanol. Oil re O working solution is prepared by diluting a stock solution with water (6:4) followed by filtration.
Table II summarizes results obtained with different analogs of DPD (SN1), “0” representing similar results to DPD, “−1” representing even less adipocyte differentiation, “+1” representing more adipocyte differentiation (both relative to DPD) and “−” meaning not assayed.

HaCaT = test: Proliferation of non-cancer cell line HaCaT, flow cytometry; type: cell-based; conditions: 20 microM, 48 hours of treatment
Description: (§2) A human cervical carcinoma cell line (HeLa) engineered to stably express a recombinant biosensor reporter activity and a non-cancer cell line, HaCaT (Boukamp et al., 1988, J. Cell Biol 106(3):761-771) was used with a Caspa Tag kit (commercially available eg from Chemicon). The detection of proliferation was carried out using a high content screening automated flow cytometer.
(§3) DPD (Substance 1) was diluted to 20 microM in cell culture medium without serum adjusted to 1% DMSO. Detection of cellular events was performed in duplicate in 96-well plates after 48 hours of treatment in the FL2 (dilution of a proliferative marker) channels of a HTS flow cytometer (FACS Calibur HTS, Becton Dickenson). At day 1, cells were seeded in 96 well plates. Cells were treated with DPD and the appropriate controls on day 2 and analysis was carried out on day 4.

3T3-L1 cells = test: Adipocyte differentiation assay, inhibition, Oil Red O staining; type: cell-based
Description: To test compounds as inhibitors of adipocyte differentiation, 3T3-L1 cells are grown as above until two-day postconfluence (designated day 0), after which the cells are induced to differentiate with DMEM containing 10% fetal bovine serum (FBS), 1 μM dexamethasone (Sigma), 0.5 mM methylisobutylxanthine (Sigma), 1 μg/ml insulin (Roche Molecular Biochemicals) and the test-compound. Cells induced to differentiate in presence of solvent of the test-compounds are used as positive control. After 48 h, the cells are re-fed with DMEM containing 10% FBS supplemented with the test compound or the positive control. From day 4, cells are grown in DMEM with 10% FBS and are changed every second day until day 8. At day 8, cells are stained with Oil Red O as described below.
as §1

[2] = tested on: human cervical carcinoma cell line (HeLa); test: Inhibition of cancer cell proliferation, HeLa, flow cytometry; type: cell-based; conditions: 48 hours of treatment, read-out: inhibition of proliferation of HeLa cells
Description: as §2, §3

human pre-adipocytes = test: Adipocyte differentiation assay using human pre-adipocytes; type: cell-based; conditions: similar to DMSO
full-length hPPARdelta = target: T1, full-length hPPARdelta (Homo sapiens, UniProt Q03181); test: Transactivation assay with full length human PPAR delta; type: cell-based
T1 construct: expressed in transfected cells
T1 sequence (Q03181 1-441): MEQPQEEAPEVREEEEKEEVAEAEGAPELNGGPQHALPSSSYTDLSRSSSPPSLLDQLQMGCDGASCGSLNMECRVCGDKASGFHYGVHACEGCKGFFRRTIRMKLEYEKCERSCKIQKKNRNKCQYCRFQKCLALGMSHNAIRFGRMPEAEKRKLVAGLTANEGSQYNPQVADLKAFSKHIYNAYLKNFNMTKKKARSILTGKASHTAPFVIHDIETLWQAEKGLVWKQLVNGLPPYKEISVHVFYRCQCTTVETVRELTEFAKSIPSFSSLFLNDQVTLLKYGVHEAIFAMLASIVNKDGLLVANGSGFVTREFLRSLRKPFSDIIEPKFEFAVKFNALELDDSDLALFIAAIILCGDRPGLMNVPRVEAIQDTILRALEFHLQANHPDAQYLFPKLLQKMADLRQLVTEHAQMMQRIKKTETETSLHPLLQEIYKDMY

In the case of `O=C(O)CC/C=C\C[C@@H]1CO[C@H](c2ccccc2Cl)O[C@@H]1c1ccccc1O` (racemic) [SN1, 4-(Z)-6-(2-o-chlorophenyl-4-o-hydroxyphenyl-1,3-dioxan-cis-5-yl) hexenoic acid], the “PPAR gamma modulating activity, in words” value [1] is reported as “PPAR gamma agonist”, the “induction of adipocyte differentiation (red staining), in words” value (3T3-L1 / MEFs) is reported as “very little red staining” and the “effect on the non-cancer cell line HaCaT” value (HaCaT) is reported as “no effect”. For the same compound, the “inhibition of adipocyte differentiation” value (3T3-L1 cells) was “no significant effect”, the inhibition at 20 µM [2] was 90% and the “red staining in human pre-adipocytes” value (human pre-adipocytes) was “very little red staining”. For the same compound, the “activation of full-length hPPARdelta” value (full-length hPPARdelta) was “no activation was seen”.
